The target of assay [1] is T1, DNA ligase 1 (Homo sapiens, UniProt P18858). Description: Inhibition of human DNA ligase 1 expressed in Escherichia coli BL21 (DE3) cells using nicked DNA as substrate preincubated for 30 mins followed by substrate addition measured after 1 hr.
The target in assay [2] is T1, DNA ligase 1. Description: Inhibition of human DNA ligase 1.
The target in assay [3] is T1, DNA ligase 1. Description: Inhibition of human DNA ligase 1 at 100 uM using nicked DNA as substrate by high-throughput fluorescence energy transfer-based DNA joining assay relative to control.
Assay [4] relates to HCT-116. Description: Antiproliferative activity against human HCT116 cells relative to control. Type of assay: functional.
The target in assay [5] is T1, DNA ligase 1. Description: Competitive inhibition of human DNA ligase 1 using nicked DNA as substrate by high-throughput fluorescence energy transfer-based DNA joining assay.
The target of the next assay is T2, DNA ligase 3 (Homo sapiens, UniProt P49916).
T2 sequence (P49916 whole entry): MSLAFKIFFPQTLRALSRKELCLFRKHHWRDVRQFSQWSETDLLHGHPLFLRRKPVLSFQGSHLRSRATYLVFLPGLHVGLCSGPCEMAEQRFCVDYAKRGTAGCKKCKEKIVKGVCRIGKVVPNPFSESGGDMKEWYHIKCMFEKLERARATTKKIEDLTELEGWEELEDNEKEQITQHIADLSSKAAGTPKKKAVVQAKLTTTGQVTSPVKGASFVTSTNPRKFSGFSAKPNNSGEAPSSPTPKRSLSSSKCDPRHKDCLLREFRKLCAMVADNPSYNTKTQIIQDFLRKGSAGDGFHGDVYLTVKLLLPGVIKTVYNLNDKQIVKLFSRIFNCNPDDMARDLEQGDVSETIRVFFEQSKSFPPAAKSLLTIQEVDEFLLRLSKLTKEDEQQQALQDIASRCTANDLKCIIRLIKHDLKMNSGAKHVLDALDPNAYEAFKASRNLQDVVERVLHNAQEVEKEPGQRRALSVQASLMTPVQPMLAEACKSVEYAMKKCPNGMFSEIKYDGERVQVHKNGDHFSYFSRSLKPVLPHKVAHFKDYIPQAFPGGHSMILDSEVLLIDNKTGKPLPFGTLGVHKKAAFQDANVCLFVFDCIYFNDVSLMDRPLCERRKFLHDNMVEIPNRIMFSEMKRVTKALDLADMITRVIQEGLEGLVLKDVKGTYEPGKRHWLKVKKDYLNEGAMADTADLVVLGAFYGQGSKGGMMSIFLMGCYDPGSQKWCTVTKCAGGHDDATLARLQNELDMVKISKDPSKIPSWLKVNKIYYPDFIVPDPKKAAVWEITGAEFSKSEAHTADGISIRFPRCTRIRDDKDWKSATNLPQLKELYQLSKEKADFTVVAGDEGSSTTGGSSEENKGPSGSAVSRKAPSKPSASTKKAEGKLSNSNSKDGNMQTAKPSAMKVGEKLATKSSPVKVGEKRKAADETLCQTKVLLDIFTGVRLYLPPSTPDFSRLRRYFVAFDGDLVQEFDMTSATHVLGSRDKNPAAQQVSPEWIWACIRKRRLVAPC
Description: Competitive inhibition of human DNA ligase 3 using nicked DNA as substrate by high-throughput fluorescence energy transfer-based DNA joining assay.

For assay [6], the target named is T1, DNA ligase 1. Description: Inhibition of human DNA ligase 1 at 50 uM using 52-mer DNA/25-mer DNA/27-mer DNA as substrate by fluorescence assay relative to control.
The test system of the next assay is DLD-1. Description: Antiproliferative activity against human DLD1 cells after 48 hrs by MTT assay. It is filed as functional, cell-based. The note with it: DLD-1, 48 h. Background: Tetrazolium assays rely on reduction of a dye to a coloured formazan, in cell work by metabolically active cells.
A further assay has as its system HepG2. Description: Antiproliferative activity against human HepG2 cells after 48 hrs by MTT assay. It is filed as functional, cell-based. The note with it: HepG2, 48 h.
In assay [7] the test system is MDA-MB-231. Description: Antiproliferative activity against human MDA-MB-231 cells after 48 hrs by MTT assay. The note with it: MDA-MB-231, 48 h. It is filed as functional, cell-based.
Another assay concerns HEK293. Description: Cytotoxicity against HEK293 cells after 48 hrs by MTT assay. The note with it: Homo sapiens, HEK293, 48 h. It is filed as cell-based.
The nature of assay [8]: Antiproliferative activity against human 46BR.1G1 cells after 48 hrs by MTT assay. It is filed as functional, cell-based.
In assay [9] the target is T1, DNA ligase 1. Description: Inhibition of human DNA ligase 1 expressed in Escherichia coli BL21DE3RP cells at 50 uM using 52-mer DNA/25-mer DNA/27-mer DNA as substrate after 30 mins by Cyanin3 dye-based fluorescence assay relative to control.
In assay [10] the test system is HCT-116. Description: Antiproliferative activity against human HCT116 cells after 48 hrs by MTT assay. Type of assay: functional, cell-based. To be noted: HCT-116, 48 h.
The next assay deals with HT-29. Description: Antiproliferative activity against human HT-29 cells after 48 hrs by MTT assay. Type of assay: functional, cell-based. To be noted: HT-29, 48 h.
The next assay relates to HeLa. Description: Antiproliferative activity against human HeLa cells after 48 hrs by MTT assay. Type of assay: functional, cell-based.
In the next assay the test system is 4T1. Description: Antiproliferative activity against mouse 4T1 cells after 48 hrs by MTT assay. Type of assay: functional, cell-based. The note with it: 4T1, 48 h.
The subject of assay [11] is MDA-MB-231. Description: Antiproliferative activity against human MDA-MB-231 cells at 10 uM after 48 hrs by MTT assay relative to control. Type of assay: functional. To be noted: MDA-MB-231, 48 h.
For assay [12], the target named is T1, DNA ligase 1. Description: Inhibition of human DNA ligase 1 at 25 uM using nicked DNA as substrate after 30 mins relative to control.
Assay [13] concerns the target T1, DNA ligase 1. Description: Inhibition of human DNA ligase 1 using 52-mer DNA/25-mer DNA/27-mer DNA as substrate.
Another assay has as its target T3, DNA ligase 4 (Homo sapiens, UniProt P49917).
T3 sequence (P49917 whole entry): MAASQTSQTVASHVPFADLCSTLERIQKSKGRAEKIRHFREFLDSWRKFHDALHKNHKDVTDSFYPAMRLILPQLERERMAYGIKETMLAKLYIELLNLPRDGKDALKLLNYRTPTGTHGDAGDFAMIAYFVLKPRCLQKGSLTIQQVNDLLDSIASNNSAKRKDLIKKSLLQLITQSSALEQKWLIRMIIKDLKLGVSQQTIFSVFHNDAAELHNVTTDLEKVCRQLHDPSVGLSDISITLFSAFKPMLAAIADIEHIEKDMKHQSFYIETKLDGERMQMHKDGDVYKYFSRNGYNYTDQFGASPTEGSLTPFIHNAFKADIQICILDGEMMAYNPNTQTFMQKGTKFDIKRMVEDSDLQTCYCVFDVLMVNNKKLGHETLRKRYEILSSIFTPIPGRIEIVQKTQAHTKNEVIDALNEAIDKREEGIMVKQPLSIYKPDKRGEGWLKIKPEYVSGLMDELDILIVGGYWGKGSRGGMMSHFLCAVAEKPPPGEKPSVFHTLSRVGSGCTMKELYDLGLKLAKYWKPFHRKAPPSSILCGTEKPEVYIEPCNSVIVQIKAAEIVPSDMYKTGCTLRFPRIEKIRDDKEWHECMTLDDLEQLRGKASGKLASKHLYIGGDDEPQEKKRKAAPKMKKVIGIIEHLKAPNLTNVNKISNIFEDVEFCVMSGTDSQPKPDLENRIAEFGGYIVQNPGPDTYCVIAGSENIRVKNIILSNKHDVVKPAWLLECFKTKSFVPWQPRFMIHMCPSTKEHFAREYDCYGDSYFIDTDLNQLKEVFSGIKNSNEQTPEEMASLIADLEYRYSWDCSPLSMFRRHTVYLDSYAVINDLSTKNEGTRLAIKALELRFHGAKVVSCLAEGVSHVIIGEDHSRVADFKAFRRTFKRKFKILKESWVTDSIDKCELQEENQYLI
Description: Competitive inhibition of human DNA ligase 4 using nicked DNA as substrate by high-throughput fluorescence energy transfer-based DNA joining assay.

Assay [14] addresses T1, DNA ligase 1. Description: Inhibition of human DNA ligase 1 using nicked DNA as substrate after 30 mins relative to control.
Assay [15] has as its target T1, DNA ligase 1. Description: Uncompetitive inhibition of human DNA ligase 1 using nicked DNA as substrate by high-throughput fluorescence energy transfer-based DNA joining assay.

21 compounds from ChEMBL document CHEMBL4334494, “Recent advances in the targeting of human DNA ligase I as a potential new strategy for cancer treatment” (Eur J Med Chem, 2019) can be followed below.

T1 sequence (P18858 whole entry): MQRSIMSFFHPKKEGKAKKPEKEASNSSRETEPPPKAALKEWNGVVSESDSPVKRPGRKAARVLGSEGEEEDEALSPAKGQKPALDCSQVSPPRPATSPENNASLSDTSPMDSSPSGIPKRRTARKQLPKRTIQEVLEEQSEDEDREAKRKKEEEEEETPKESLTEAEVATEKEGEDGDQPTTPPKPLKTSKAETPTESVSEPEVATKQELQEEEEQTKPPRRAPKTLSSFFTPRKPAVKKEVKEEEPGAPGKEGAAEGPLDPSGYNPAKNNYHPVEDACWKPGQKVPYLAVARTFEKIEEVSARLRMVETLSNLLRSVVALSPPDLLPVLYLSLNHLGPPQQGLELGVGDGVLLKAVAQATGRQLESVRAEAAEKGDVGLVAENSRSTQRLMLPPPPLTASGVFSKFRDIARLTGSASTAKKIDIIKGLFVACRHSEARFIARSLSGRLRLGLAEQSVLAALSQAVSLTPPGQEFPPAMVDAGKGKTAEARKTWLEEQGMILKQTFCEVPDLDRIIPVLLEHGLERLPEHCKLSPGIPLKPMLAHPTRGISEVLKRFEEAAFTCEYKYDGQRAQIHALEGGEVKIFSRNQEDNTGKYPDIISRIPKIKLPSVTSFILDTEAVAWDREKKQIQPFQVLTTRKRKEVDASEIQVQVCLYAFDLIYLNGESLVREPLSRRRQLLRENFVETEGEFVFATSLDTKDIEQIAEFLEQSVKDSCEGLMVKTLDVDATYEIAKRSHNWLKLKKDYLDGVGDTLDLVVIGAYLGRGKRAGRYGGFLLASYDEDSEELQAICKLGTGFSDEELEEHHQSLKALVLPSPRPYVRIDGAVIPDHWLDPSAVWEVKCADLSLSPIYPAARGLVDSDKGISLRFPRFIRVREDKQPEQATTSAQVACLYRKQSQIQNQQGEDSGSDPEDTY

As usually defined, the IC50 is the concentration that inhibits the measured activity by half. Low readings indicate higher potency, high ones lower potency. In turn, `O=C1Nc2ccccc2/C1=N/Nc1cn[nH]c(=O)c1Cl` registered an IC50 on DNA ligase 1 [1] of 13.9 µM.
For the compound `N[C@H](CO)Cc1cc(I)c(Oc2ccc(O)cc2)c(I)c1`, the IC50 on DNA ligase 1 [2] came out at 1 µM.
By inhibition is commonly meant the share of the control response that was lost under treatment. `Cc1c(Br)cc(NCC(=O)N/N=C/c2cc([N+](=O)[O-])ccc2O)cc1Br` gave an inhibition against DNA ligase 1 [3] of 78.3%. Also, in the assay with HCT-116 [4], the Activity came out at 70%. Further, the IC50 at DNA ligase 1 [5] and at DNA ligase 3 was 10 µM throughout.
In turn, `O=C1/C(=N\Nc2cn[nH]c(=O)c2Cl)c2cc(Cl)ccc2N1c1ccc(F)cc1` gave an IC50 at DNA ligase 1 [1] of 21.1 µM.
In the case of `Cc1ccc(N2C(=O)/C(=N\Nc3cn[nH]c(=O)c3Cl)c3ccccc32)cc1`, at DNA ligase 1 [1], half-maximal inhibition (IC50) was put at 14.1 µM.
Take `O=C1/C(=N\Nc2cn[nH]c(=O)c2Cl)c2cc(Cl)ccc2N1c1ccc(Cl)cc1`: at DNA ligase 1 [1], the IC50 was 14.1 µM.
With `COc1ccc(-c2cnc3c(O)nc(O)nc3n2)cc1`, the Activity in the assay with HCT-116 [4] is 70%.
As to `O=[N+]([O-])c1ccc(N/N=C(/c2ccc(O)cc2)c2cccc3ccccc23)c([N+](=O)[O-])c1`, the inhibition against DNA ligase 1 [6] turned out to be 93.1%. Moreover, the IC50 with DLD-1 is 6.78 µM; in the assay with HepG2, 6.93 µM; in the assay on MDA-MB-231 [7], 7.02 µM; in the assay with HEK293, 12.6 µM; in assay [8], > 25 µM.
As for `O=C1/C(=C/c2ccc(F)cc2)CN(C(=S)NCCc2ccccc2)C/C1=C\c1ccc(F)cc1`, the IC50 in the assay on DLD-1, in the assay with HepG2, with MDA-MB-231 [7], in the assay with HCT-116 [10], with HT-29 and in the assay with HeLa was < 10 µM in each case. In addition, the IC50 in the assay with 4T1 is < 10 µM. Moreover, the inhibition on DNA ligase 1 [9] was > 75%.
For the compound `COc1cccc(OC)c1/C=C/c1cc(=O)oc2c1ccc1ccccc12`, in the assay on MDA-MB-231 [11], the inhibition at 10 µM was > 50%. In addition, on DNA ligase 1 [12], the inhibition was < 50%.
With `COc1cc(/C=C/c2cc(=O)oc3c2ccc2c(OC)cccc23)cc(OC)c1`, in the assay with MDA-MB-231 [11], the inhibition at 10 µM is > 50%. The inhibition at DNA ligase 1 [12] is < 50%.
For the compound `O=C1Nc2ccc(Cl)cc2/C1=N/Nc1cn[nH]c(=O)c1Cl`, the IC50 against DNA ligase 1 [1] turned out to be 14.1 µM.
On to `O=C1/C(=N\Nc2cn[nH]c(=O)c2Cl)c2cc(Br)ccc2N1c1ccccc1`, for which the IC50 against DNA ligase 1 [1] stood at 36.4 µM.
Take `O=C1c2cc(Cl)ccc2NC(c2ccc(Cl)c(Cl)c2)c2cccn21` (stereo not given): on DNA ligase 1 [13], the half-inhibitory concentration (IC50) turned out to be 15.8 µM.
On to `O=C1/C(=N\Nc2cn[nH]c(=O)c2Cl)c2ccccc2N1c1ccc(Cl)cc1`, for which the IC50 against DNA ligase 1 [1] was found to be 26.5 µM.
`Nc1nc(S)nc(O)c1/N=C/c1ccccc1`: the inhibition against DNA ligase 1 [3] was determined as 68.8%. Further, in the assay with HCT-116 [4], the Activity is recorded as 70%. Besides, the half-maximal inhibitory concentration (IC50) on DNA ligase 1 [5] turned out to be 5 µM; at DNA ligase 3, 9 µM; on DNA ligase 4, 5 µM.
The compound `O=C1/C(=N\Nc2cn[nH]c(=O)c2Cl)c2cc(Br)ccc2N1c1ccc(Cl)cc1` displayed an IC50 against DNA ligase 1 [1] of 15.5 to 18.8 µM.
On to `COc1cc(/C=C/c2cc(=O)oc3c2ccc2ccccc23)cc(OC)c1`, for which, in the assay on MDA-MB-231 [11], the inhibition at 10 µM was > 50%. Also, the concentration for half-maximal inhibition (IC50) in the assay on MDA-MB-231 [7] amounted to 12.8 µM; with 4T1 it was 11.6 µM. Further, the inhibition at DNA ligase 1 [14] is 99.3%; against DNA ligase 1 [12], < 50%.
`O=C1c2cc(Cl)ccc2NC(c2ccc(Br)cc2)c2cccn21` (stereo not given): at DNA ligase 1 [13], 23.1 µM corresponded to half-maximal inhibition (IC50).
In the case of `Cc1ccc(/C=C2\CN(C(=S)NC(=O)c3ccccc3)C/C(=C\c3ccc(C)cc3)C2=O)cc1`, the IC50 with DLD-1, with HepG2, in the assay with MDA-MB-231 [7], with HCT-116 [10], with HT-29 and with HeLa was < 10 µM in each case. Further, in the assay on 4T1, the IC50 is < 10 µM. The inhibition at DNA ligase 1 [9] is > 75%.
`O=c1[nH]ncc(N/N=C/c2ccc(O)c([N+](=O)[O-])c2)c1Cl`: the inhibition at DNA ligase 1 [3] was 59.8%. Besides, the Activity in the assay on HCT-116 [4] came to 70%. The IC50 on DNA ligase 1 [15] is 12 µM.
